According to patent US10563263B2, “Genetic polymorphisms associated with statin response and cardiovascular diseases, methods of detection and uses thereof” (CELERA CORPORATION, priority 2010, dated 2020):

Tested on: CVD (CHD or stroke)
Assay: Meta-analysis of CARE and WOSCOPS combined, synergy index, CVD endpoint
Format: in vivo, human
From the text: Tables 4-5 provide meta-analyses of CARE and WOSCOPS combined (2nd section of each table) for two endpoints (CHD and CVD) and three genetic models (dominant, recessive, and additive), as well as logistic regression analyses of CARE (3rd section of each table) and WOSCOPS (4th section of each table) individually.
Tables 12 and 17 provide results of meta-analysis of the CARE and WOSCOPS sample sets combined by direct genotyping and by imputing genotypes.
“P” indicates the p-value, and “P(R)” (or “P.R.”) indicates the p-value random effect. Both of these are p-values corresponding to a statistical test of whether the combined synergy index is equal to one but use different assumptions to derive the p-value. “P” is calculated using a fixed effects model, and “P(R)” is calculated using a random effects model.
“OR” indicates the odds ratio (synergy index) calculated from a fixed effects model, and “OR(R)” (or “OR.R.”) indicates the odds ratio (synergy index) calculated from a random effects model.

## CC[C@H](C)C(=O)O[C@H]1C[C@H](O)C=C2C=C[C@H](C)[C@H](CC[C@@H](O)C[C@@H](O)CC(=O)O)[C@H]21 [Pravastatin, pravastatin]
rs483159 allele T DOMINANT Imputed
  OR(R): 1.4202
rs489441 allele G ADDITIVE Imputed
  OR(R): 1.4992
rs489441 allele G DOMINANT Imputed
  OR(R): 1.6072
rs937890 allele G (A1), DOMINANT, Imputed
  OR(R): 0.6731
rs949016 allele C (A1), ADDITIVE, Imputed
  OR(R): 1.5082
rs966583 allele A (A1), ADDITIVE, Imputed
  OR(R): 0.7272
rs966583 allele A (A1), DOMINANT, Imputed
  OR(R): 0.5916
rs974130 allele A (A1), RECESSIVE, Genotyped
  OR(R): 2.0112
rs977160 allele T (A1), ADDITIVE, Imputed
  OR(R): 1.5465
rs985375 allele A (A1), GENOTYPIC, Imputed
  OR(R): 2.8891
rs4760895 allele A ADDITIVE Imputed
  OR(R): 0.7392
rs4760895 allele A DOMINANT Imputed
  OR(R): 0.6285
rs4760895 allele A GENOTYPIC Imputed
  OR(R): 0.574
rs4764738 allele A ADDITIVE Imputed
  OR(R): 1.4051
rs4764738 allele A GENOTYPIC Imputed
  OR(R): 1.9728
rs4764974 allele T ADDITIVE Imputed
  OR(R): 1.3855
rs4764974 allele T GENOTYPIC Imputed
  OR(R): 1.9196
rs4798366 allele G RECESSIVE Imputed
  OR(R): 1.8332
rs4836502 allele T DOMINANT Imputed
  OR(R): 0.6712
rs4836507 allele C DOMINANT Imputed
  OR(R): 0.6775
rs4836744 allele A ADDITIVE Imputed
  OR(R): 0.7345
rs4836744 allele A DOMINANT Imputed
  OR(R): 0.6854
rs4848944 allele C RECESSIVE Genotyped
  OR(R): 0.5819
rs4851529 allele A DOMINANT Imputed
  OR(R): 0.6476
rs4851531 allele T DOMINANT Imputed
  OR(R): 0.6602
rs4858046 allele T GENOTYPIC Genotyped
  OR(R): 2.0533
rs4878214 allele A ADDITIVE Imputed
  OR(R): 0.6477
rs4880803 allele A ADDITIVE Imputed
  OR(R): 0.7694
rs4896568 allele T DOMINANT Imputed
  OR(R): 0.6231
rs4938851 allele T DOMINANT Imputed
  OR(R): 1.4515
rs4964416 allele C DOMINANT Imputed
  OR(R): 0.6251
rs5756669 allele C DOMINANT Imputed
  OR(R): 1.6531
rs6033138 allele C ADDITIVE Imputed
  OR(R): 1.3837
rs6033138 allele C GENOTYPIC Imputed
  OR(R): 1.9484
rs6033138 allele C RECESSIVE Imputed
  OR(R): 1.6769
rs6040619 allele C ADDITIVE Imputed
  OR(R): 1.3881
rs6040619 allele C GENOTYPIC Imputed
  OR(R): 2.0334
rs6040619 allele C RECESSIVE Imputed
  OR(R): 1.7879
rs6040625 allele T ADDITIVE Imputed
  OR(R): 1.3888
rs6040625 allele T GENOTYPIC Imputed
  OR(R): 2.0214
rs6040625 allele T RECESSIVE Imputed
  OR(R): 1.7684
rs6040630 allele A ADDITIVE Imputed
  OR(R): 1.3767
rs6040630 allele A GENOTYPIC Imputed
  OR(R): 1.9741
rs6040630 allele A RECESSIVE Imputed
  OR(R): 1.7241
rs6040633 allele A ADDITIVE Imputed
  OR(R): 1.3703
rs6040633 allele A GENOTYPIC Imputed
  OR(R): 1.9475
rs6040633 allele A RECESSIVE Imputed
  OR(R): 1.6999
rs6040634 allele T ADDITIVE Imputed
  OR(R): 1.3722
rs6040634 allele T GENOTYPIC Imputed
  OR(R): 1.9531
rs6040634 allele T RECESSIVE Imputed
  OR(R): 1.7021
rs6040636 allele T ADDITIVE Imputed
  OR(R): 1.3761
rs6040636 allele T GENOTYPIC Imputed
  OR(R): 1.9585
rs6040636 allele T RECESSIVE Imputed
  OR(R): 1.7021
rs6040638 allele C ADDITIVE Imputed
  OR(R): 1.3722
rs6040638 allele C GENOTYPIC Imputed
  OR(R): 1.9531
rs6040638 allele C RECESSIVE Imputed
  OR(R): 1.7021
rs6040644 allele A ADDITIVE Imputed
  OR(R): 1.3722
rs9309988 allele G (A1), DOMINANT, Imputed
  OR(R): 1.9381
rs9309989 allele C (A1), DOMINANT, Genotyped
  OR(R): 1.9491
rs9310221 allele A (A1), DOMINANT, Imputed
  OR(R): 1.8519
rs9327555 allele T (A1), DOMINANT, Imputed
  OR(R): 0.5753
rs9454967 allele G (A1), ADDITIVE, Imputed
  OR(R): 2.1926
rs9454967 allele G (A1), DOMINANT, Imputed
  OR(R): 2.4795
rs9471295 allele T (A1), DOMINANT, Imputed
  OR(R): 1.5391
rs9477007 allele A (A1), ADDITIVE, Imputed
  OR(R): 1.429
rs9477007 allele A (A1), GENOTYPIC, Imputed
  OR(R): 2.0759
rs9487279 allele T (A1), DOMINANT, Imputed
  OR(R): 0.5948
rs9555973 allele G (A1), ADDITIVE, Imputed
  OR(R): 0.5479
rs9555973 allele G (A1), DOMINANT, Imputed
  OR(R): 0.5157
rs9557510 allele G (A1), ADDITIVE, Imputed
  OR(R): 1.6102
rs9557510 allele G (A1), DOMINANT, Imputed
  OR(R): 1.7706
rs9560584 allele T (A1), DOMINANT, Imputed
  OR(R): 0.512
rs9588770 allele T (A1), DOMINANT, Imputed
  OR(R): 0.5187
rs9588848 allele C (A1), ADDITIVE, Imputed
  OR(R): 0.5369
rs9588848 allele C (A1), DOMINANT, Imputed
  OR(R): 0.5009
rs9812206 allele G (A1), ADDITIVE, Imputed
  OR(R): 0.4469
rs9812206 allele G (A1), DOMINANT, Imputed
  OR(R): 0.4369
rs9813552 allele G (A1), ADDITIVE, Imputed
  OR(R): 0.4493
rs9813552 allele G (A1), DOMINANT, Imputed
  OR(R): 0.4387
rs9815037 allele T (A1), ADDITIVE, Imputed
  OR(R): 0.4461
rs9815037 allele T (A1), DOMINANT, Imputed
  OR(R): 0.4354
rs9825349 allele A (A1), ADDITIVE, Imputed
  OR(R): 0.4461
rs9825349 allele A (A1), DOMINANT, Imputed
  OR(R): 0.4354
rs9834217 allele T (A1), ADDITIVE, Imputed
  OR(R): 0.4466
rs9834217 allele T (A1), DOMINANT, Imputed
  OR(R): 0.4359
rs9840460 allele T (A1), ADDITIVE, Imputed
  OR(R): 0.4461
rs9840460 allele T (A1), DOMINANT, Imputed
  OR(R): 0.4354
rs9840756 allele A (A1), ADDITIVE, Imputed
  OR(R): 0.4458
rs9840756 allele A (A1), DOMINANT, Imputed
  OR(R): 0.435
rs9844801 allele C (A1), DOMINANT, Imputed
  OR(R): 1.9381
rs9869187 allele C (A1), ADDITIVE, Imputed
  OR(R): 0.4651
rs9869187 allele C (A1), DOMINANT, Imputed
  OR(R): 0.4704
rs9872327 allele T (A1), DOMINANT, Imputed
  OR(R): 1.9381
rs9881685 allele A (A1), ADDITIVE, Imputed
  OR(R): 0.4438
rs9881685 allele A (A1), DOMINANT, Imputed
  OR(R): 0.4332
rs9909499 allele C (A1), DOMINANT, Imputed
  OR(R): 1.4669
rs9911847 allele G (A1), DOMINANT, Imputed
  OR(R): 0.6755
rs9946886 allele G (A1), RECESSIVE, Imputed
  OR(R): 0.3084
rs9958823 allele A (A1), ADDITIVE, Imputed
  OR(R): 1.5292
rs9965248 allele T (A1), ADDITIVE, Imputed
  OR(R): 1.4965
